In PMC6112376, “Comprehensive Analyses and Prioritization of Tox21 10K Chemicals Affecting Mitochondrial Function by in-Depth Mechanistic Studies” (Environmental Health Perspectives, 2018):
Structures can show the parent of a compound that is named as a salt. Where two headings read alike, the source gives them in different places.

Tests used:
rat primary hepatocytes [1] = system: rat primary hepatocytes
HepG2 cells [2] = conditions: cited from earlier work
HepG2 cells [3] = experiment: cells; conditions: Homo sapiens; for IC50: HepG2, read-out: MMP assays IC50 (µM) HepG2; for Emax: HepG2, read-out: MMP assays efficacy (%) HepG2
rat primary hepatocytes [4] = experiment: MMP assay in rat primary hepatocytes; conditions: for IC50: Rattus norvegicus, Hepatocyte, read-out: MMP assays IC50 (µM) Rat Hepatocytes
[5] = read-out: MMP assays IC50 (µM), qHTS-HepG2
[6] = read-out: MMP assays IC50 (µM) qHTS-HepG2

| SMILES | MMP assays efficacy (%) Rat Hepatocytes (rat primary hepatocytes [1]) | MMP assays efficacy (%) qHTS-HepG2 (HepG2 cells [2]) | IC50 (HepG2 cells [2]; [5]) | IC50 (HepG2 cells [3]) | Emax (HepG2 cells [3]) | MMP assays IC50 (µM) Rat Hepatocytes (rat primary hepatocytes [4]) | IC50 (rat primary hepatocytes [4]) | IC50 (HepG2 cells [2]; [6]) |
| --- | --- | --- | --- | --- | --- | --- | --- | --- |
| COC(=O)Nc1nc2ccc(C(=O)c3cccs3)cc2[nH]1 [Nocodazole] | inactive | -62±6% | 3.53 ± 1.63 µM | 2.18 µM | 87% | inactive | – | – |
| CC(C)[C@H](C(=O)OC(C#N)c1cccc(Oc2ccccc2)c1)c1ccc(OC(F)F)cc1 (stereo partly shown) [Flucythrinate] | -57±39% | -84±23% | 35.7 ± 20 µM | 31.6 µM | 80% | – | 43.9 ± 17.4 µM | – |
| O=C1c2ccccc2C(=O)c2c1ccc(O)c2O [Alizarin] | -80±8% | -101±8% | – | 13.8 µM | 94% | – | 11.9 ± 7.79 µM | 11 ± 1.41 µM |
| Cc1cc(NC(=O)C2=C(O)c3ccccc3S(=O)(=O)N2C)no1 [Isoxicam] | -60±55% | -66±27% | 5.18 ± 2.9 µM | 2.75 µM | 38% | – | 4.92 ± 0.8 µM | – |
| c1ccc(-c2cccc(-c3ccccc3)c2)cc1 [1,1':3',1''-Terphenyl] | -53±28% | -80±13% | – | 50.1 µM | 90% | – | 29.6 ± 27.7 µM | 47.9 ± 14.3 µM |
| CCc1oc2ccccc2c1C(=O)c1cc(Br)c(O)c(Br)c1 [Benzbromarone] | -82±50% | -138±3% | – | 13.8 µM | 107% | – | 4.91 ± 1.79 µM | 7.22 ± 1.24 µM |
| CC(NCCC(c1ccccc1)c1ccccc1)c1ccccc1 (stereo not shown) [Fendiline hydrochloride] | inactive | -79±12% | – | 9.75 µM | 87% | inactive | – | 10.3 ± 1.55 µM |
| O=c1c(O)c(-c2ccc(O)cc2)oc2cc(O)cc(O)c12 [Kaempferol] | -84±55% | -100±8% | 2.56 ± 3.04 µM | 6.76 µM | 96% | – | 24.1 ± 8.76 µM | – |
| Oc1ccc(Cl)c(Cl)c1 [3,4-Dichlorophenol] | -45±32% | -104±7% | – | 15.8 µM | 114% | – | 53.9 ± 13 µM | 9.18 ± 2.63 µM |
| CCCCCc1ccc(C)cc1O [Amylmetacresol] | inactive | -109±16% | – | – | 115% | inactive | – | 11.2 ± 0.65 µM |
| Cc1c(Cl)cccc1Nc1ccccc1C(=O)O [Tolfenamic acid] | -105±5% | -115±7% | 11.9 µM | 17.3 µM | 98% | – | 14.8 ± 4.38 µM | – |
| Oc1c(Cl)cc(Cl)c2cccnc12 [CHLOROXINE] | inactive | -75±22% | – | 9.75 µM | 99% | inactive | – | 10.6 ± 1.22 µM |
| CCCSP(=O)(OCC)Oc1ccc(Br)cc1Cl (stereo not shown) [Profenofos] | -61±47% | -92±20% | 2.54 ± 1.84 µM | 6.15 µM | 84% | – | 13.2 ± 3.19 µM | – |
| N#CC(C#N)=NNc1cccc(Cl)c1 [Carbonyl cyanide chlorophenylhydrazone] | inactive | – | – | 0.25 µM | 96% | inactive | – | 0.15 ± 0.04 µM |
| CCN(CC)C(=O)[C@@H]1C=C2c3cccc4[nH]cc(c34)C[C@H]2N(C)C1 [Lysergide] | inactive | -54±2% | 9.03 ± 1.87 µM | 17.3 µM | 48% | inactive | – | – |
| Oc1c(Cl)cc(Cl)c(Cl)c1Cc1c(O)c(Cl)cc(Cl)c1Cl [Hexachlorophene] | -103±31% | -101±7% | 0.7 ± 0.46 µM | 0.63 µM | 115% | – | 1 ± 0.74 µM | – |
| S=C=Nc1ccccc1 [Phenyl isothiocyanate] | inactive | -103±16% | 43 ± 14.8 µM | 35.5 µM | 134% | inactive | – | – |
| CCC(C)(CC)c1cc(NC(=O)c2c(OC)cccc2OC)on1 [Isoxaben] | inactive | -80±23% | 26.3 ± 5.75 µM | 14.1 µM | 60% | inactive | – | – |

| SMILES | MMP assays efficacy (%) Rat Hepatocytes (rat primary hepatocytes [1]) | MMP assays efficacy (%) qHTS-HepG2 (HepG2 cells [2]) | IC50 (HepG2 cells [2]; [5]) | IC50 (HepG2 cells [3]) | Emax (HepG2 cells [3]) | MMP assays IC50 (µM) Rat Hepatocytes (rat primary hepatocytes [4]) | IC50 (rat primary hepatocytes [4]) | IC50 (HepG2 cells [2]; [6]) |
| --- | --- | --- | --- | --- | --- | --- | --- | --- |
| C[C@]12CC[C@H]3C(=CCc4cc(O)ccc43)[C@@H]1CCC2=O [Equilin] | -47±10% | -97±4% | – | 31.6 µM | 126% | – | 39.1 ± 15.5 µM | 24.3 ± 4.6 µM |
| Oc1ccc(C2(c3ccc(O)cc3)CCCCC2)cc1 [Bisphenol Z] | -34±12% | -101±12% | – | 19.9 µM | 113% | – | 14.7 ± 15.1 µM | 22.2 ± 5.51 µM |
| Oc1ccc(Cl)c(Cl)c1Cl [2,3,4-Trichlorophenol] | -59±36% | -101±8% | – | 7.94 µM | 101% | – | 41.8 ± 14.4 µM | 5.23 ± 1.52 µM |
| C[C@H]1O[C@@H](O[C@H]2[C@@H](O)C[C@H](O[C@H]3[C@@H](O)C[C@H](O[C@H]4CC[C@@]5(C)[C@H](CC[C@@H]6[C@@H]5CC[C@]5(C)[C@@H](C7=CC(=O)OC7)CC[C@]65O)C4)O[C@@H]3C)O[C@@H]2C)C[C@H](O)[C@@H]1O [Digitoxin] | inactive | -77±6% | – | 0.06 µM | 97% | inactive | – | 0.16 ± 0.05 µM |
| CC(C)(c1ccccc1)c1ccc(O)cc1 [Compound 4-Cumylphenol] | -77±17% | -103±17% | – | 3.55 µM | 108% | – | 48 ± 11.6 µM | 3.7 ± 0.82 µM |
| CN(C)S(=O)(=O)N(SC(F)(Cl)Cl)c1ccccc1 [Dichlofluanid] | -59±33% | -105±5% | – | 25.1 µM | 99% | – | 23 ± 29.5 µM | 5.24 ± 1.99 µM |
| CC(C)CC(=O)C1C(=O)c2ccccc2C1=O [2-Isovaleryl-1,3-indanedione] | -107±61% | -99±5% | – | 56.2 µM | 108% | – | 22.2 ± 11.1 µM | 5.24 ± 0.9 µM |
| CC1(C)[C@H](C(=O)O[C@H](C#N)c2cccc(Oc3ccccc3)c2)[C@@H]1C=C(Br)Br [Deltamethrin] | -65±42% | -75±5% | – | 50.1 µM | 93% | – | 39.8 ± 14.2 µM | 45.9 ± 17.9 µM |
| CC(=O)Oc1ccccc1C(=O)Nc1ncc([N+](=O)[O-])s1 [Nitazoxanide] | -94±13% | -94±10% | 1.04 ± 0.96 µM | 1.26 µM | 89% | – | 6.94 ± 4.36 µM | – |
| Clc1ccc(C(c2ccc(Cl)cc2)C(Cl)(Cl)Cl)cc1 [p,p'-DDT] | inactive | -99±12% | 24.3 ± 2.74 µM | 30.8 µM | 69% | inactive | – | – |
| CCC(C)(c1ccc(O)cc1)c1ccc(O)cc1 [Bisphenol B] | -79±17% | -117±22% | – | 10 µM | 122% | – | 21.8 ± 8.6 µM | 10.7 ± 2.48 µM |
| Cc1c(O)cccc1C(=O)N[C@@H](CSc1ccccc1)[C@H](O)CN1C[C@H]2CCCC[C@H]2C[C@H]1C(=O)NC(C)(C)C [Nelfinavir mesylate] | -61±48% | -120±19% | 11.9 ± 6.92 µM | 30.8 µM | 97% | – | 8.68 ± 12.2 µM | – |
| CCCSc1ccc2nc(NC(=O)OC)[nH]c2c1 [Albendazole] | -85±78% | -78±15% | – | 19.4 µM | 107% | – | 15.5 ± 21.7 µM | 9.35 ± 1.83 µM |
| O=C(CC(=O)c1ccccc1)c1ccccc1 [1,3-Diphenyl-1,3-propanedione] | -84±43% | -75±15% | – | 35.5 µM | 121% | – | 39.8 ± 14.2 µM | 11.7 ± 1.35 µM |
| O=C(Nc1ccccc1)c1ccccc1O [Salicylanilide] | -91±5% | -125±11% | 3.71 ± 1.27 µM | 3.98 µM | 101% | – | 29.1 ± 12.2 µM | – |
| CN(C)c1ccc2nc3ccc(=[N+](C)C)cc-3sc2c1 [Methylene blue] | inactive | -78±9% | 2.88 ± 1.33 µM | 2.75 µM | 89% | inactive | – | – |
| Nc1ccc(Cc2ccc(N)c(Cl)c2)cc1Cl [4,4'-Methylenebis(2-chloroaniline)] | -52±15% | -98±24% | – | 39.8 µM | 87% | – | 56.2 µM | 49.1 ± 17 µM |
